# In EP4467141A1, “PYRAZOLO-QUINOLINES AS SELECTIVE INHIBITORS OF GENOTOXIC STRESS-INDUCED IKK/NF- KB PATHWAYS FOR CANCER THERAPY” (Max-Delbrück-Centrum für Molekulare Medizin in der …, priority 2023, dated 2024):
# How the values were obtained:
# [1] = HPLC of media supernatant from U2-OS cell culture (degradation); format: physicochemical; settings: 10µM
# [2] = tested on: p65 nuclear translocation; assay: HCS screening: etoposide-induced p65 nuclear translocation in U2-OS cells; format: cell-based; settings: Homo sapiens, U2OS, read-out: etoposide-stimulated IC50 of p65 nuclear translocation
# Description: (§1) Fig.1: Identification of inhibitors specific for DNA damage-induced NF-κB activity. (A) Flowchart representing the high-throughput chemical library screening. A screen/counter-screen strategy was used by stimulating NF-κB in U2-OS cells with etoposide (50 µM for 90 min) and hits were counter-screened with TNFα (10 ng/ml for 20 min). Cells were pre-treated with compounds (10 µM) for 1 hour before stimulation, fixed, and percent p65 nuclear translocation measured by fluorescence microscopy. IC50 values were used for final selection. (B) Comparison of mean p65 nuclear translocation following either etoposide or TNFa stimulation after treatment with each counter-screened hit compound. Values were normalized to etoposide or TNFα positive controls. Specific inhibitors (red) of DNA damage-induced NF-κB signaling were defined by setting cut-off criteria (black line). […] (E) Western blot analysis (top) and quantification (bottom) of NF-κB subunit p65 phosphorylation (S536) following 1-hour pre-treatment with DMSO, MW01 (10 µM), or MW05 (10 µM), in unstimulated, after 90 min irradiation (IR, 20 Gy), or after 20 min TNFα (10 ng/mL) conditions in U2- OS cells. […]
# (§2) To identify inhibitors that selectively prevent DNA damage-induced NF-κB activation, we established a high-throughput screening platform quantifying p65 nuclear translocation, an essential step in NF-κB activation (Hayden and Ghosh, 2008). […]
# [3] = tested on: p65 nuclear translocation; assay: HCS counter-screen: TNFα-induced p65 nuclear translocation in U2-OS cells; format: cell-based
# Description: as §1, §2
SMILES,degradation in cell culture conditions [1],IC50 [2] [nM],TNFα stimulated IC50 of p65 nuclear translocation [3]
"COc1ccc2c(c1OC)c(=O)n1c3ccc(O)cc3c3ccnc2c31 [MW01, 5-Hydroxy-10,11-dimethoxy-9H-benzo[c]indolo[3,2,1-ij][1,5]naphthyridin-9-one]",minimal degradation,460,out of range
"COc1ccc2cc3c(N)nn(C(=O)c4cccc(N(C)C)c4)c3nc2c1 [MW05, (3-Amino-7-methoxypyrazolo[3,4-b]quinolin-1-yl)-[3-(dimethylamino)phenyl]methanone]",minimal degradation,690,out of range
